Data from the supplement of paper PMC11061612.

Tests used:
Assay in all cases: combination Emax (second highest fraction inhibited in the dose matrix, 72 h); higher = more inhibition; extreme values may be limits of the assay
[1] = system: EPLC-272H (Other Solid Carcinomas)
Method in brief: (§1)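 Cell lines in DMEM/F12 or RPMI with 10% FBS were plated in 1536-well plates, held 24 hours at 37°C, 5% CO2, then given two-drug dose matrices for 72 hours (DMSO typically 0.2%). Viability was read by CellTiter-Glo 2.0 luminescence and scaled as inhibition from 0 (vehicle wells) to 1 (blank wells). Combination Emax is the second-highest inhibition in the matrix; Bliss excess is observed combination effect minus expected EA + EB − EA·EB, EA and EB being single-agent effects.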

[2] = system: LU-165 (Small Cell Lung Carcinoma)
Method in brief: as §1

[3] = system: SW620 (Colorectal Carcinoma)
Method in brief: as §1

PEO1 (Ovarian Carcinoma) = system: PEO1 (Ovarian Carcinoma)
Method in brief: as §1

KP-N-YN (Neuroblastoma) = system: KP-N-YN (Neuroblastoma)
Method in brief: as §1

[4] = system: HCC1428 (Breast Carcinoma)
Method in brief: as §1

[5] = system: MDA-MB-436 (Breast Carcinoma)
Method in brief: as §1

EW-7 (Ewing's Sarcoma) = system: EW-7 (Ewing's Sarcoma)
Method in brief: as §1

COLO-792 (Melanoma) = system: COLO-792 (Melanoma)
Method in brief: as §1

EW-16 (Ewing's Sarcoma) = system: EW-16 (Ewing's Sarcoma)
Method in brief: as §1

[6] = system: HCC1395 (Breast Carcinoma)
Method in brief: as §1

[7] = system: LS-411N (Colorectal Carcinoma)
Method in brief: as §1

[8] = system: MHH-ES-1 (Ewing's Sarcoma)
Method in brief: as §1

EB2 (Burkitt's Lymphoma) = system: EB2 (Burkitt's Lymphoma)
Method in brief: as §1

[9] = system: DMS-53 (Small Cell Lung Carcinoma)
Method in brief: as §1

RH-41 (Rhabdomyosarcoma) = system: RH-41 (Rhabdomyosarcoma)
Method in brief: as §1

[10] = system: GA-10 (Burkitt's Lymphoma)
Method in brief: as §1

5637 (Bladder Carcinoma) = system: 5637 (Bladder Carcinoma)
Method in brief: as §1

[11] = system: HT55 (Colorectal Carcinoma)
Method in brief: as §1

[12] = system: ESO26 (Esophageal Adenocarcinoma)
Method in brief: as §1

Row | Compound | combination Emax [1] | combination Emax [2] | combination Emax [3] | combination Emax (PEO1 (Ovarian Carcinoma)) | combination Emax (KP-N-YN (Neuroblastoma)) | combination Emax [4] | combination Emax [5] | combination Emax (EW-7 (Ewing's Sarcoma)) | combination Emax (COLO-792 (Melanoma)) | combination Emax (EW-16 (Ewing's Sarcoma)) | combination Emax [6] | combination Emax [7] | combination Emax [8] | combination Emax (EB2 (Burkitt's Lymphoma)) | combination Emax [9] | combination Emax (RH-41 (Rhabdomyosarcoma)) | combination Emax [10] | combination Emax (5637 (Bladder Carcinoma)) | combination Emax [11] | combination Emax [12]
1 | CC1(C)CCC(CN2CCN(c3ccc(C(=O)NS(=O)(=O)c4ccc(NCC5CCOCC5)c([N+](=O)[O-])c4)c(Oc4cnc5[nH]ccc5c4)c3)CC2)=C(c2ccc(Cl)cc2)C1 [Venetoclax] + Cc1cc2ncnn2cc1Nc1ncc2c(n1)n(C1CCOCC1)c(=O)n2C [AZD7648] (first compound max 1 µM, 7x7, partner max 10 µM) | 0.514 | 0.196 | 0.175 | 0.163 | 0.542 | 0.139 | 0.22 | 0.95 | 0.411 | 0.193 | 0.654 | 0.107 | 0.26 | 0.756 | 0.428 | 0.608 | 0.698 | 0.251 | 0.205 | 0.134
2 | CN(CCO)CC[C@H](CSc1ccccc1)Nc1ccc(S(=O)(=O)NC(=O)c2ccc(N3CCC([C@@H](O)c4ccccc4-c4ccc(Cl)cc4)CC3)cc2)cc1S(=O)(=O)C(F)(F)F [AZD4320] + CN(C)CCCOc1ccc(-c2ccc3ncc4c(c3c2)n(C2CCOCC2)c(=O)n4C)cn1 [AZD0156] (first compound max 1 µM, 7x7, partner max 1 µM) | 0.439 | 0.526 | 0.366 | 0.45 | – | 0.541 | 0.133 | 0.68 | 0.856 | 0.406 | 0.202 | 0.199 | 0.491 | 0.253 | 0.965 | 0.85 | 0.303 | 0.222 | 0.161 | 0.153
3 | CCN(CCO)CCCOc1ccc2c(Nc3cc(CC(=O)Nc4cccc(F)c4)[nH]n3)ncnc2c1 [AZD2811] + O=C(c1cc(Cc2n[nH]c(=O)c3ccccc23)ccc1F)N1CCN(C(=O)C2CC2)CC1 [Olaparib] (first compound max 1 µM, 7x7, partner max 10 µM) | 0.204 | 0.29 | 0.281 | 0.29 | 0.541 | 0.218 | 0.144 | 0.361 | 0.374 | 0.626 | 0.328 | 0.149 | 0.76 | 0.373 | 0.181 | 0.245 | 0.595 | 0.622 | 0.291 | 0
4 | CS(=O)(=O)CCNCc1ccc(-c2ccc3ncnc(Nc4ccc(OCc5cccc(F)c5)c(Cl)c4)c3c2)o1 [Lapatinib] + NC1(c2ccc(-c3nc4ccn5c(=O)[nH]nc5c4cc3-c3ccccc3)cc2)CCC1 [MK-2206] (first compound max 10 µM, 7x7, partner max 10 µM) | – | 0.453 | 0.889 | 0.348 | 0.922 | 0.308 | 0.461 | 0.965 | – | – | 0.969 | 0.295 | 0.905 | 0.834 | 0.544 | – | – | – | – | –
5 | Cc1c2c(nn1C)CSCc1cc(n(C)n1)CSc1cc(c3ccccc3c1)OCCCc1c(C(=O)O)n(C)c3c-2c(Cl)ccc13 [AZD5991] + CCN(CCO)CCCOc1ccc2c(Nc3cc(CC(=O)Nc4cccc(F)c4)[nH]n3)ncnc2c1 [AZD2811] (first compound max 1 µM, 7x7, partner max 1 µM) | 0.945 | 0.307 | 0.512 | 0.321 | – | 0.974 | 0.181 | 0.655 | 0.977 | 0.808 | 0.713 | 0.178 | 0.883 | 0.342 | 0.56 | 1 | 0.923 | 0.91 | 0.553 | 0.319
6 | C=CCn1c(=O)c2cnc(Nc3ccc(N4CCN(C)CC4)cc3)nc2n1-c1cccc(C(C)(C)O)n1 [AZD1775] + C1CN(CCC1(C(=O)N[C@@H](CCO)C2=CC=C(C=C2)Cl)N)C3=NC=NC4=C3C=CN4 [Capivasertib] (first compound max 3 µM, partner max 3 µM) | 0.834 | 0.536 | 0.8 | 0.773 | – | 0.524 | 0.41 | 0.896 | 0.651 | 0.888 | 0.777 | 0.878 | 0.833 | 0.822 | 0.619 | 0.801 | 0.964 | 0.957 | 0.831 | 0.707
7 | C=CCn1c(=O)c2cnc(Nc3ccc(N4CCN(C)CC4)cc3)nc2n1-c1cccc(C(C)(C)O)n1 [AZD1775] + C[C@@H]1COCCN1C2=NC(=NC(=C2)C3(CC3)[S@](=N)(=O)C)C4=C5C=CNC5=NC=C4 [AZD6738] (first compound max 1 µM, partner max 10 µM) | 0.882 | 0.48 | 0.83 | 0.6 | – | 0.49 | 0.478 | 0.944 | 0.474 | 0.771 | 0.896 | 0.77 | 0.714 | 0.88 | 0.221 | 0.995 | 1 | 0.898 | 0.782 | 0.399
